Experiments:
L858R/T790M/C797S EGFR = molecular target: T1, L858R/T790M/C797S EGFR (Homo sapiens, UniProt P00533, C797S/L858R/T790M); test: EGFR degradation HTRF assay in H1975-clone #25 (LTC) cells; assay type: cell-based; conditions: 16h treatment; for DC50: H1975 # 25-LTC (L858R/T790M/C797S), HTRF; for Dmax: NCI-H1975, H1975 # 25-LTC (L858R/T790M/C797S), maximum percentage of degradation
T1 construct: expressed in transfected cells; host or cells: H1975 clone #25 (lentiviral over-expression, endogenous EGFR knocked out by sgRNA)
T1 sequence (P00533 25-1210 T790M/C797S/L858R): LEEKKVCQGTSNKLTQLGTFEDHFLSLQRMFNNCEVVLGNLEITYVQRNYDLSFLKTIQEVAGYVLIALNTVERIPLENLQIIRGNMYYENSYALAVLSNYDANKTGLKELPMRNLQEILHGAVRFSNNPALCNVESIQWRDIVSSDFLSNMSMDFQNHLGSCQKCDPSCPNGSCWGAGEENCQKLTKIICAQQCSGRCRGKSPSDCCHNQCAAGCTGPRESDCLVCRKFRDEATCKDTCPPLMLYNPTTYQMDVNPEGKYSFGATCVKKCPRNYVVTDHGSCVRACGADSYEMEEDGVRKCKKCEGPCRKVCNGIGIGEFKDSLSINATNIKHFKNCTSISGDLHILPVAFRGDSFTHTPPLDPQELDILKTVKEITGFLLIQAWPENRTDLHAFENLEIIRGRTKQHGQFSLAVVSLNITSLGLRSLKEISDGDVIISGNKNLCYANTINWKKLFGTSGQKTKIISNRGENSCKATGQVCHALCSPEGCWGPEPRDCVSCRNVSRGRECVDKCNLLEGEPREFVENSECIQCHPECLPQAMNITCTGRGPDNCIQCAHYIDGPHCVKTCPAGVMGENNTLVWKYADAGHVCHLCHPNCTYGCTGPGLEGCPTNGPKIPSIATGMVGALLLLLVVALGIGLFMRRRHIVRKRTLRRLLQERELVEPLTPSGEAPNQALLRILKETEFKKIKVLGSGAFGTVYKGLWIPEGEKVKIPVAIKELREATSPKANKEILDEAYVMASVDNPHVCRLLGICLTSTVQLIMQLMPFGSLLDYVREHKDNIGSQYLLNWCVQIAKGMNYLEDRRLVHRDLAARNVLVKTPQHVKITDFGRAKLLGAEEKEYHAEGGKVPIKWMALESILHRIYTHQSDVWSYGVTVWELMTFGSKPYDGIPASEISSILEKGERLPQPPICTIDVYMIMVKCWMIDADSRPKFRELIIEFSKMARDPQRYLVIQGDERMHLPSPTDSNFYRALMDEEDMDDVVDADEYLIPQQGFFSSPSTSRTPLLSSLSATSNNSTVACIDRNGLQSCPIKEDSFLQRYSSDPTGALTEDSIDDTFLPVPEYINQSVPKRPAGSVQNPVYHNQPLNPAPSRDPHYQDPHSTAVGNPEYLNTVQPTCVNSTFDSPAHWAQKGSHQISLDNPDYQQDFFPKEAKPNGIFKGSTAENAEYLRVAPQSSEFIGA
Summary of the method: (§1)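 Remaining EGFR protein was measured by HTRF (337 nm excitation, 665/620 nm emission) in lysates after overnight antibody incubation. Cells had been exposed for 16 h to an 8-point, 5-fold series starting at 10 uM, and DC50 values were fitted with a Hill equation.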

Del19/T790M/C797S EGFR = test: EGFR degradation HTRF assay in H1975-clone #28 (DTC) cells; assay type: cell-based; conditions: H1975 # 28 DTC (Del19/T790M/C797S), 16h treatment; for DC50: HTRF; for Dmax (%): maximum percentage of degradation
Summary of the method: as §1

Compound | DC50 (L858R/T790M/C797S EGFR) [nM] | Dmax (L858R/T790M/C797S EGFR) [%] | DC50 (Del19/T790M/C797S EGFR) [nM] | Dmax (%) (Del19/T790M/C797S EGFR)
Cc1cc2cc(n1)-c1cnn(C)c1OCCC[C@@H](C)CN1/C(=N/C2=O)Nc2ccc(C(=O)N3CC[C@@H](NCCc4cc(F)c([C@H]5CCC(=O)NC5=O)c(F)c4)C3)cc21 [Example 296, (R)-3-(2,6-difluoro-4-(2-(((R)-1-((R,E)-1^1,2^6,7-trimethyl-3-oxo-5^2,5^3-dihydro-1^1H,5^1H-11-oxa-4-aza-5(2,1)-benzo[d]imidazola-2(2,4)-pyridina-1(4,5)-pyrazolacycloundecaphane-5′-carbonyl)pyrrolidin-3-yl)amino)ethyl)phenyl)piperidine-2,6-dione] | 0.707 | 84.8 | 0.842 | 51.36
Cc1cc2cc(n1)-c1cnn(C)c1OCCC[C@@H](C)CN1/C(=N/C2=O)Nc2ccc(C(=O)N3CC[C@H](N(C)CCc4cc(F)c([C@H]5CCC(=O)NC5=O)c(F)c4)C3)cc21 [Example 297, (R)-3-(2,6-difluoro-4-(2-(methyl((S)-1-((R,E)-1^1,2^6,7-trimethyl-3-oxo-5^2,5^3-dihydro-1^1H,5^1H-11-oxa-4-aza-5(2,1)-benzo[d]imidazola-2(2,4)-pyridina-1(4,5)-pyrazolacycloundecaphane-5^6-carbonyl)pyrrolidin-3-yl)amino)ethyl)phenyl)piperidine-2,6-dione] | 0.432 | 91.7 | 0.292 | 79.64
Cc1cc2cc(n1)-c1cnn(C)c1OCCC[C@@H](C)CN1/C(=N/C2=O)Nc2ccc(C(=O)N3CC[C@H](NCCc4cc(F)c([C@H]5CCC(=O)NC5=O)c(F)c4)C3)cc21 [Example 298, (R)-3-(2,6-difluoro-4-(2-(((S)-1-((R,E)-1^1,2^6,7-trimethyl-3-oxo-5^2,5^3-dihydro-1^1H,5^1H-11-oxa-4-aza-5(2,1)-benzo[d]imidazola-2(2,4)-pyridina-1(4,5)-pyrazolacycloundecaphane-5^6-carbonyl)pyrrolidin-3-yl)amino)ethyl)phenyl)piperidine-2,6-dione] | 1.14 | 90.1 | 1.2 | 66.58
Cc1cc2cc(n1)-c1cnn(C)c1OCCC[C@@H](C)CN1/C(=N/C2=O)Nc2ccc(C(=O)N3CCC(N(C)CCc4cc(F)c([C@H]5CCC(=O)NC5=O)c(F)c4)CC3)cc21 [Example 299, (R)-3-(2,6-difluoro-4-(2-(methyl(1-((R,E)-1^1,2^6,7-trimethyl-3-oxo-5^2,5^3-dihydro-1^1H,5^1H-11-oxa-4-aza-5(2,1)-benzo[d]imidazola-2(2,4)-pyridina-1(4,5)-pyrazolacycloundecaphane-5^6-carbonyl)piperidin-4-yl)amino)ethyl)phenyl)piperidine-2,6-dione] | 0.468 | 86.9 | 0.611 | 66.17

Further lines, with some results ahead:

DC50 (L858R/T790M/C797S EGFR) [nM] | Dmax (L858R/T790M/C797S EGFR) [%] | DC50 (Del19/T790M/C797S EGFR) [nM] | Compound | Dmax (%) (Del19/T790M/C797S EGFR)
0.653 | 88.2 | 1.48 | Cc1cc2cc(n1)-c1cnn(C)c1OCCC[C@@H](C)CN1/C(=N/C2=O)Nc2ccc(C(=O)N3CCC(NCCc4cc(F)c([C@H]5CCC(=O)NC5=O)c(F)c4)CC3)cc21 [Example 300, (R)-3-(2,6-difluoro-4-(2-((1-((R,E)-1^1,2^6,7-trimethyl-3-oxo-5^2,5′-dihydro-1^1H,5^1H-11-oxa-4-aza-5(2,1)-benzo[d]imidazola-2(2,4)-pyridina-1(4,5)-pyrazolacycloundecaphane-5^6-carbonyl)piperidin-4-yl)amino)ethyl)phenyl)piperidine-2,6-dione] | 73.74
0.582 | 80.9 | 0.246 | Cc1cc2cc(n1)-c1cnn(C)c1OCCC[C@@H](C)CN1/C(=N/C2=O)Nc2ccc(C(=O)N3CCN(C4CCN(c5cc(F)c([C@H]6CCC(=O)NC6=O)c(F)c5)CC4)CC3)cc21 [Example 303, (R)-3-(2,6-difluoro-4-(4-(4-((R,E)-1^1,2^6,7-trimethyl-3-oxo-5^2,5^3-dihydro-1^1H,5^1H-11-oxa-4-aza-5(2,1)-benzo[d]imidazola-2(2,4)-pyridina-1(4,5)-pyrazolacycloundecaphane-5^6-carbonyl)piperazin-1-yl)piperidin-1-yl)phenyl)piperidine-2,6-dione] | 63.64
0.61 | 79.9 | 0.595 | Cc1cc2cc(n1)-c1cnn(C)c1OCCC[C@@H](C)CN1/C(=N/C2=O)Nc2ccc(C(=O)N3CC[C@H]4CN(CCc5cc(F)c([C@H]6CCC(=O)NC6=O)c(F)c5)CC[C@H]43)cc21 [Example 304, (R)-3-(2,6-difluoro-4-(2-((3aS,7aR)-1-((R,E)-1^1,2^6,7-trimethyl-3-oxo-5^2,5^3-dihydro-1^1H,5^1H-11-oxa-4-aza-5(2,1)-benzo[d]imidazola-2(2,4)-pyridina-1(4,5)-pyrazolacycloundecaphane-5^6-carbonyl)octahydro-5H-pyrrolo[3,2-c]pyridin-5-yl)ethyl)phenyl)piperidine-2,6-dione] | 78.73
0.861 | 90.6 | 0.668 | Cc1cc2cc(n1)-c1cnn(C)c1OCCC[C@@H](C)CN1/C(=N/C2=O)Nc2ccc(C(=O)N3CC(NCCc4cc(F)c([C@H]5CCC(=O)NC5=O)c(F)c4)C3)cc21 [Example 305, (R)-3-(2,6-difluoro-4-(2-((1-((R,E)-1^1,2^6,7-trimethyl-3-oxo-5^2,5^3-dihydro-1^1H,5^1H-11-oxa-4-aza-5(2,1)-benzo[d]imidazola-2(2,4)-pyridina-1(4,5)-pyrazolacycloundecaphane-5^6-carbonyl)azetidin-3-yl)amino)ethyl)phenyl)piperidine-2,6-dione] | 80.65
0.742 | 84.3 | 0.614 | Cc1cc2cc(n1)-c1cnn(C)c1OCCC[C@@H](C)CN1/C(=N/C2=O)Nc2ccc(C(=O)N3CC(N(C)CCc4cc(F)c([C@H]5CCC(=O)NC5=O)c(F)c4)C3)cc21 [Example 306, (R)-3-(2,6-difluoro-4-(2-(methyl(1-((R,E)-1^1,2^6,7-trimethyl-3-oxo-5^2,5^3-dihydro-1^1H,5^1H-11-oxa-4-aza-5(2,1)-benzo[d]imidazola-2(2,4)-pyridina-1(4,5)-pyrazolacycloundecaphane-5^6-carbonyl)azetidin-3-yl)amino)ethyl)phenyl)piperidine-2,6-dione] | 63.09
1.78 | 84.8 | 1.28 | Cc1cc2cc(n1)-c1cnn(C)c1OCCC[C@@H](C)CN1/C(=N/C2=O)Nc2ccc(C(=O)NC3CN(CCc4cc(F)c([C@H]5CCC(=O)NC5=O)c(F)c4)C3)cc21 [Example 307, (R,E)-N-(1-(4-((R)-2,6-dioxopiperidin-3-yl)-3,5-difluorophenethyl)azetidin-3-yl)-1^1,2^6,7-trimethyl-3-oxo-5^2,5^3-dihydro-1^1H,5^1H-11-oxa-4-aza-5(2,1)-benzo[d]imidazola-2(2,4)-pyridina-1(4,5)-pyrazola cycloundecaphane-5^6-carboxamide] | 52.25
0.702 | 88.5 | 0.646 | Cc1cc2cc(n1)-c1cnn(C)c1OCCC[C@@H](C)CN1/C(=N/C2=O)Nc2ccc(C(=O)N(C)C3CN(CCc4cc(F)c([C@H]5CCC(=O)NC5=O)c(F)c4)C3)cc21 [Example 308] | 64.88

From patent US20240342292A1, “Compounds for the Degradation of EGFR Kinase” (BeiGene Switzerland GmbH, priority 2021, published 2024)
